Where a name gives a salt, the structure may show the parent alone.
Assays:
[1] = target: T1, Adrenergic α1D (Homo sapiens, UniProt P25100); assay: competitive radioligand binding, Adrenergic α1D; details: compound concentration of 1 μM; read-out: radio-labelled ligand displacement, Adrenergic α1D
T1 sequence (P25100 1-572): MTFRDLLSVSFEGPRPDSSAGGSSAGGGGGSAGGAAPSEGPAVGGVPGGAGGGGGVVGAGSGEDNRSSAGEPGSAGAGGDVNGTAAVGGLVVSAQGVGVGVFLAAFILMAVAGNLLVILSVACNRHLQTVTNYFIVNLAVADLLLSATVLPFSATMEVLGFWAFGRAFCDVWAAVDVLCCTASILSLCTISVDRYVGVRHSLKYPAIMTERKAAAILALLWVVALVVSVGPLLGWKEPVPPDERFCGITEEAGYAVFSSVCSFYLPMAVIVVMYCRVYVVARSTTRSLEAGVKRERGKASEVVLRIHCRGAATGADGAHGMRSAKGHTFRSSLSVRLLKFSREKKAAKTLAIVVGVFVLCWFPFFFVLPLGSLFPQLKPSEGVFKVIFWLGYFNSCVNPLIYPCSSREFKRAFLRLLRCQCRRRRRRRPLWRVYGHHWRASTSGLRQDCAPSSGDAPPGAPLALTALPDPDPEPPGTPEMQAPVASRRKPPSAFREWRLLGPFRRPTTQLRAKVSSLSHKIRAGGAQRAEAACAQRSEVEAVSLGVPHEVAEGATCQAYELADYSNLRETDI
In short: (§1)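 Single-point screen: compound 1 μM, competitive radioligand binding; readout = quantitative displacement of labelled ligand.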

[2] = target: Histaminergic H1 (Homo sapiens, UniProt P35367); assay: competitive radioligand binding, Histaminergic H1; details: compound concentration of 1 μM; read-out: radio-labelled ligand displacement, Histaminergic H1
In short: as §1

[3] = target: Dopaminergic D2S (Homo sapiens, UniProt P14416); assay: competitive radioligand binding, Dopaminergic D2S; details: compound concentration of 1 μM; read-out: radio-labelled ligand displacement, Dopaminergic D2S
In short: as §1

[4] = target: Dopaminergic D1 (Homo sapiens, UniProt P21728); assay: competitive radioligand binding, Dopaminergic D1; details: compound concentration of 1 μM; read-out: radio-labelled ligand displacement, Dopaminergic D1
In short: as §1

[5] = target: Serotoninergic 5-HT2B (Homo sapiens, UniProt P41595); assay: competitive radioligand binding, Serotoninergic 5-HT2B; details: compound concentration of 1 μM; read-out: radio-labelled ligand displacement, Serotoninergic 5-HT2B
In short: as §1

[6] = target: Histaminergic H3 (Homo sapiens, UniProt Q9Y5N1); assay: competitive radioligand binding, Histaminergic H3; details: compound concentration of 1 μM; read-out: radio-labelled ligand displacement, Histaminergic H3
In short: as §1

[7] = target: T2, Serotoninergic 5-HT1A (Homo sapiens, UniProt P08908); assay: competitive radioligand binding, Serotoninergic 5-HT1A; details: compound concentration of 1 μM; read-out: radio-labelled ligand displacement, Serotoninergic 5-HT1A
T2 sequence (P08908 1-422): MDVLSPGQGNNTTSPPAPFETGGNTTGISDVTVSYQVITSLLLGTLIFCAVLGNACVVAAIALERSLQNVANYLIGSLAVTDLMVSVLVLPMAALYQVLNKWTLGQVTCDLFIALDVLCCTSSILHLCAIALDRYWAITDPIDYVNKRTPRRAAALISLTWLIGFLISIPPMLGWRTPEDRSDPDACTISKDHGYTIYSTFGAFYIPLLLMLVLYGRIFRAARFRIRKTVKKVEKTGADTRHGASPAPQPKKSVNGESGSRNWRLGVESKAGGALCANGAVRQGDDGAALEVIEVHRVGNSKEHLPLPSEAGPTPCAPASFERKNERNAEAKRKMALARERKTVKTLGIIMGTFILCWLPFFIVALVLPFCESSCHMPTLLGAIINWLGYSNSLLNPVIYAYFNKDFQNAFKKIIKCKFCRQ
In short: as §1

[8] = target: T3, Adrenergic α2A (Homo sapiens, UniProt P08913); assay: competitive radioligand binding, Adrenergic α2A; details: compound concentration of 1 μM; read-out: radio-labelled ligand displacement, Adrenergic α2A
T3 sequence (P08913 1-465): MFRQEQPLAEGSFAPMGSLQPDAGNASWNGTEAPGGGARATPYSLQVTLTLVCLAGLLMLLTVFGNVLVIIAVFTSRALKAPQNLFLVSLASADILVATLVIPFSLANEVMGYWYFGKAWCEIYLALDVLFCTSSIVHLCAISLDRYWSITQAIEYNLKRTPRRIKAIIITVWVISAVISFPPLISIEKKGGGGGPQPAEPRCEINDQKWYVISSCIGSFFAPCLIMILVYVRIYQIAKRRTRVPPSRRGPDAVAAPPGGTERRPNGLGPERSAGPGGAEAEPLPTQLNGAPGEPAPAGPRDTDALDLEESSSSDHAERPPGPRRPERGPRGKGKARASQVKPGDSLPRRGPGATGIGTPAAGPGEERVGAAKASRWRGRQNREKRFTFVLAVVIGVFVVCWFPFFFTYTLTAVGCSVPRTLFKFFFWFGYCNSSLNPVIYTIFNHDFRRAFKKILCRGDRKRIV
In short: as §1

[9] = target: Dopaminergic D2L (Homo sapiens, UniProt P14416); assay: competitive radioligand binding, Dopaminergic D2L; details: compound concentration of 1 μM; read-out: radio-labelled ligand displacement, Dopaminergic D2L
In short: as §1

[10] = target: Serotoninergic 5-HT6 (Homo sapiens, UniProt P50406); assay: competitive radioligand binding, Serotoninergic 5-HT6; details: compound concentration of 1 μM; read-out: radio-labelled ligand displacement, Serotoninergic 5-HT6
In short: as §1

[11] = target: Dopaminergic D3 (Homo sapiens, UniProt P35462); assay: competitive radioligand binding, Dopaminergic D3; details: compound concentration of 1 μM; read-out: radio-labelled ligand displacement, Dopaminergic D3
In short: as §1

[12] = system: Adrenergic α1B; assay: competitive radioligand binding, Adrenergic α1B; details: compound concentration of 1 μM
In short: as §1

[13] = target: Histaminergic H2 (Homo sapiens, UniProt P25021); assay: competitive radioligand binding, Histaminergic H2; details: compound concentration of 1 μM; read-out: radio-labelled ligand displacement, Histaminergic H2
In short: as §1

[14] = target: Serotoninergic 5-HT2A (Homo sapiens, UniProt P28223); assay: competitive radioligand binding, Serotoninergic 5-HT2A; details: read-out: radio-labelled ligand displacement, Serotoninergic 5-HT2A
In short: as §1

[15] = system: Adrenergic α1A; assay: competitive radioligand binding, Adrenergic α1A; details: compound concentration of 1 μM
In short: as §1

Sequence of Histaminergic H3 (Q9Y5N1 whole entry): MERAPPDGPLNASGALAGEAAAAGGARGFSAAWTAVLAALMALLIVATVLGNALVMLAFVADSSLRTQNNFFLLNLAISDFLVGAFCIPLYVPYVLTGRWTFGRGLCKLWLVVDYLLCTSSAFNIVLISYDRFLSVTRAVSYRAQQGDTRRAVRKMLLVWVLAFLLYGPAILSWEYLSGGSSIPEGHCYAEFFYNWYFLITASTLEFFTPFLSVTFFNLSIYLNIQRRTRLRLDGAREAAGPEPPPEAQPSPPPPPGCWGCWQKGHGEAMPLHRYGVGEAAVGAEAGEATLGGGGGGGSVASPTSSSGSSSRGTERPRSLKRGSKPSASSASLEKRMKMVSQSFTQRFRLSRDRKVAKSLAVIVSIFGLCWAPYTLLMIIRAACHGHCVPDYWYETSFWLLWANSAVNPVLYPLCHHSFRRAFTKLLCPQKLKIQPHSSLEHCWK
Sequence of Dopaminergic D2S (P14416 1-414 isoform P14416-2): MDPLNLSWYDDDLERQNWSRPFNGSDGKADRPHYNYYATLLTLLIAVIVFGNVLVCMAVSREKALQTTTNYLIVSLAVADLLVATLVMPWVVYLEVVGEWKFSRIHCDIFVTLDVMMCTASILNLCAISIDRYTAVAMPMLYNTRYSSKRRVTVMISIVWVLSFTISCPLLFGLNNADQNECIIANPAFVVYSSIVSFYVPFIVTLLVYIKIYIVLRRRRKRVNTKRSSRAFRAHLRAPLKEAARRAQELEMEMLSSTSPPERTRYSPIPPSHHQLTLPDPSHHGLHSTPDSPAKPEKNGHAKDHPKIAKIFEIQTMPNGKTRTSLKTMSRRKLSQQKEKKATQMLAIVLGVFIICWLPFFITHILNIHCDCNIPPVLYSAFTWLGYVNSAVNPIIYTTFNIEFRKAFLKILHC
Sequence of Serotoninergic 5-HT2B (P41595 whole entry): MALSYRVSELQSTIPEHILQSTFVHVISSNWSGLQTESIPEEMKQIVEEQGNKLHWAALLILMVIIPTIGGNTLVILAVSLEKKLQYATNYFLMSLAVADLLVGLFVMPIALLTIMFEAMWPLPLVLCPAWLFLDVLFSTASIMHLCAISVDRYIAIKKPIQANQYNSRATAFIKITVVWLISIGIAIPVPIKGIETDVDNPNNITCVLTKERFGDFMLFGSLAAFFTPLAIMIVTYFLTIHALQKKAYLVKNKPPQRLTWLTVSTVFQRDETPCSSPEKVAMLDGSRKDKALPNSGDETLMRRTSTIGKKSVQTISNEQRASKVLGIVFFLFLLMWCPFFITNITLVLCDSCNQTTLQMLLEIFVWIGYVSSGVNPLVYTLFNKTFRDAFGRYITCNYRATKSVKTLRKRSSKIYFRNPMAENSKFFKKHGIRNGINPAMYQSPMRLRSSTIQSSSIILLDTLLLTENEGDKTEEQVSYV
Sequence of Histaminergic H1 (P35367 whole entry): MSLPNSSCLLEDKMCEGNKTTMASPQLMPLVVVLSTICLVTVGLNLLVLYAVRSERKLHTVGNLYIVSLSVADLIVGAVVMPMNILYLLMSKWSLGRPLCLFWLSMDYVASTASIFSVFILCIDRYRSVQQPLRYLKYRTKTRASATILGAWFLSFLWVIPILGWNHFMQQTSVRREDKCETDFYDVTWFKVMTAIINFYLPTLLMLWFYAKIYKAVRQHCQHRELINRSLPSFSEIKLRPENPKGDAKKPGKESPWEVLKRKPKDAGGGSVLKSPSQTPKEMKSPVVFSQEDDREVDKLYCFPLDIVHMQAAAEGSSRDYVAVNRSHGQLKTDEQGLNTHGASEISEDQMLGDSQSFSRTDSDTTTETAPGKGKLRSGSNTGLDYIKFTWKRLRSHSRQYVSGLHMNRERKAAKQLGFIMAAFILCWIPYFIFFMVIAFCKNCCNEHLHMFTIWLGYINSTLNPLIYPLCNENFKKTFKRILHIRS
Sequence of Serotoninergic 5-HT2A (P28223 whole entry): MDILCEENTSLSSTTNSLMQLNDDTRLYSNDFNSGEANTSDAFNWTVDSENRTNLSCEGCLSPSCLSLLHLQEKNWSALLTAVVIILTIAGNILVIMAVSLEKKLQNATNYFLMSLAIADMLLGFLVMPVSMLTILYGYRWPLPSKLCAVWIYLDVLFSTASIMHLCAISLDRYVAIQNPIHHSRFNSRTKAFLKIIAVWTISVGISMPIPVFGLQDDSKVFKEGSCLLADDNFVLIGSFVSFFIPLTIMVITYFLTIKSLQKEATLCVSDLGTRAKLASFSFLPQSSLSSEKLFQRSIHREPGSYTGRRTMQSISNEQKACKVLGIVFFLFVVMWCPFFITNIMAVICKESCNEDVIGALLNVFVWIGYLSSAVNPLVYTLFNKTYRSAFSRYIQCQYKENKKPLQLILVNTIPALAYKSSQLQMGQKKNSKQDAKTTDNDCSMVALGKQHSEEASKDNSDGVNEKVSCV
Sequence of Dopaminergic D3 (P35462 whole entry): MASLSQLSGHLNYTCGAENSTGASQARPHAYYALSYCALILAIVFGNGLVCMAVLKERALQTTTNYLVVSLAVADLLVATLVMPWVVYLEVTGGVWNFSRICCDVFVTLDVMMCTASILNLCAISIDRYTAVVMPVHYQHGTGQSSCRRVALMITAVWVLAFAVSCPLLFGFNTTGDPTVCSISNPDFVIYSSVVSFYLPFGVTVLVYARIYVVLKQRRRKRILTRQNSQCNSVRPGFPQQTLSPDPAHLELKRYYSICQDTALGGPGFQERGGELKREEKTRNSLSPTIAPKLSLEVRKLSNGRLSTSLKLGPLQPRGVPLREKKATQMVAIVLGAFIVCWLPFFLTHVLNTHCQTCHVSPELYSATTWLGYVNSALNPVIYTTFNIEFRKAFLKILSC
Sequence of Serotoninergic 5-HT6 (P50406 whole entry): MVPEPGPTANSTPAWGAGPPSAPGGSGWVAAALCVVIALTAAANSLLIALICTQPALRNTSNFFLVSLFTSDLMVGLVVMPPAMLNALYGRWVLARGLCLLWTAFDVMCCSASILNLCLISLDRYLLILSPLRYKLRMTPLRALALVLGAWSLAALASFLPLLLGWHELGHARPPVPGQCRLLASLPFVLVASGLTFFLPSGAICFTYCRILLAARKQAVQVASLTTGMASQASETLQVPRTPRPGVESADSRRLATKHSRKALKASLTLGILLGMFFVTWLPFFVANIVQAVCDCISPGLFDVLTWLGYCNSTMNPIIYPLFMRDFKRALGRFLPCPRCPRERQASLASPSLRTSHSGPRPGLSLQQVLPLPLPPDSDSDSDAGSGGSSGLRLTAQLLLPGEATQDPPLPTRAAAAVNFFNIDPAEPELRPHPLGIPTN
Sequence of Dopaminergic D2L (P14416 whole entry): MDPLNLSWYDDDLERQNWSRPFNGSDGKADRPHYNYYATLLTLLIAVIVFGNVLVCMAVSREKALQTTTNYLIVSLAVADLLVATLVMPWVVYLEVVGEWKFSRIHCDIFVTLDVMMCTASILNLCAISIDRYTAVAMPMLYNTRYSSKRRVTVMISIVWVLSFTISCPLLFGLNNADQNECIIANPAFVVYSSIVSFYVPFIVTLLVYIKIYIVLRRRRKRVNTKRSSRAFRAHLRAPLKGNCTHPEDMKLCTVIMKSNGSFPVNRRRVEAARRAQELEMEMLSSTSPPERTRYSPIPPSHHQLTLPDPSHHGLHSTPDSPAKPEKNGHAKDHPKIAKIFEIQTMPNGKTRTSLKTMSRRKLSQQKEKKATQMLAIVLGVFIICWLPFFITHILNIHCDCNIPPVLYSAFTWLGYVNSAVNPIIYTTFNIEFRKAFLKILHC
Sequence of Dopaminergic D1 (P21728 whole entry): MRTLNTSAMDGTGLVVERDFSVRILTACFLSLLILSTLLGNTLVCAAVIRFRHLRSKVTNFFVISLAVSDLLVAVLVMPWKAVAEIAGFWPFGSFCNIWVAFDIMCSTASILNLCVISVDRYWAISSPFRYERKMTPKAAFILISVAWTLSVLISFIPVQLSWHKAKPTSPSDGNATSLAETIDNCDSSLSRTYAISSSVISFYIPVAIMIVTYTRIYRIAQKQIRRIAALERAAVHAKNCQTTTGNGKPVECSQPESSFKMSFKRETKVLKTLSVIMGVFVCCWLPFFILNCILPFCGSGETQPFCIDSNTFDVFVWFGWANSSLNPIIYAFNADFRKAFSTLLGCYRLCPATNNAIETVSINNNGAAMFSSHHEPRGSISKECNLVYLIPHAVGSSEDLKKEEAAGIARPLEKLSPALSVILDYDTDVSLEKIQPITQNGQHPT
Sequence of Histaminergic H2 (P25021 whole entry): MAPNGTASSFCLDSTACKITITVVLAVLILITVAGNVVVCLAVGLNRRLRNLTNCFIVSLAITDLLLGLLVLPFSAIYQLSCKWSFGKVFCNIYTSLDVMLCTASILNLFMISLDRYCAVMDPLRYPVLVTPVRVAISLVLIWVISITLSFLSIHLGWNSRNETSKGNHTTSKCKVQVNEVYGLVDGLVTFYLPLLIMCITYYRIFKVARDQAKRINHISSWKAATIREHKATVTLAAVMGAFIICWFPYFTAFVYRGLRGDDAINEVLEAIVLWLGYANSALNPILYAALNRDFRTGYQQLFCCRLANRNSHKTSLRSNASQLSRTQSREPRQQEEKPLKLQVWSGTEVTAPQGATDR

SMILES	inhibition at 1 µM [1] [%]	inhibition at 1 µM [2] [%]	inhibition at 1 µM [3] [%]	inhibition at 1 µM [4] [%]	inhibition at 1 µM [5] [%]	inhibition at 1 µM [6] [%]	inhibition at 1 µM [7] [%]	inhibition at 1 µM [8] [%]	inhibition at 1 µM [9] [%]	inhibition at 1 µM [10] [%]	inhibition at 1 µM [11] [%]	radio-labelled ligand displacement, Adrenergic α1B [12] [%]	inhibition at 1 µM [13] [%]	inhibition at 1 µM [14] [%]	radio-labelled ligand displacement, Adrenergic α1A [15] [%]
Cc1ccc(Cn2c3c(c4sc(Cl)cc42)C(C)N(C)C(C)C3)cn1 (stereo not drawn) [2.5(4)•HCl, 4-(6-methylpyridin-3-ylmethyl)-6,7,8-trimethyl-2-chloro-5,6,7,8-tetrahydro-4H-thieno[2′,3′:4,5]pyrrolo[3,2-c]pyridine]	29	70	17	3	78	9	35	42	11	85	15	38	83	91	51
Cc1ccc(CCCn2c3c(c4scc(Cl)c42)CN(C)CC3)cn1 [2.12(5)•HCl, 7-methyl-4-[3-(6-methylpyridin-3-yl)propyl]-3-chloro-5,6,7,8-tetrahydro-4H-thieno[2′,3′:4,5]pyrrolo[3,2-c]pyridine]	93	99	89	75	95	12	57	101	87	100	71	97	96	99	98

— patent US20130267551A1, “SUBSTITUTED HYDROGENATED THIENO-PYRROLO[3,2-C]PYRIDINE, LIGANDS, A PHARMACEUTICAL COMPOSITION AND A METHOD FOR USING THE ABOVE” (ALLA CHEM, LLC, priority 2010, published 2013)
